| SMILES | melting point |
| --- | --- |
| COC(=O)CCCC#Cc1cc(F)cc(C(F)(F)F)c1 | 44 to 45 °C |
| O=C(O)C(Br)C(O)c1cccc([N+](=O)[O-])c1 (configuration not stated) | 124 to 125 °C |
| O=S(=O)(C=Cc1ccccc1)N1CCc2c([nH]c3ccccc23)C1c1ccc2c(c1)OCO2 (configuration not stated) | 191 to 192 °C |
| CCN(CC)C(C)CN(c1c(C)cccc1C)S(C)(=O)=O (configuration not stated) | 58 to 60 °C |
| CC(C)(CCl)C(=O)NO | 148 to 151 °C |
| COc1ccc2cc(-c3nc(-c4ccncc4)no3)c(=O)oc2c1 | 300 °C |
| C=CCC(C#N)(C#N)C(C)(C)c1cccc(Cl)c1 | 84.3 °C |
| Nc1ccc(C(=S)N2CCCCC2)cc1 | 162 to 164 °C |
| O=C(CCCCl)Nc1ccnn1-c1c(Cl)cc(C(F)(F)F)cc1Cl | 103 to 104 °C |
| O=C(C(=O)c1ccc(C(F)(F)F)cc1)c1ccncc1 | 70 to 72 °C |
| O=C1N(Cc2ccc(C(F)(F)F)o2)c2c(Cl)cccc2C12COc1cc3c(cc12)CCO3 (configuration not stated) | 210 to 211 °C |
| COC(=O)COc1ccc(Nc2cc(Nc3ccc(F)c(Cl)c3)ncn2)cc1 | 191 to 193 °C |
| CCO[C@@H]1C[C@@H]2CN(C(=O)[C@@H](NC(=O)[C@H](C)NC)C3CCC(F)(F)CC3)[C@H](C(=O)N[C@@H]3CCOc4ccccc43)CN2C1 | 179 °C |
| CC1Oc2cc3nc(S)[nH]c3cc2O1 | > 300 °C |
| CCc1cnc(N2CCC(c3ccc4[nH]c(-c5ccc(S(C)(=O)=O)cc5F)nc4c3)CC2)nc1 | 220 to 224 °C |
| CCOC(=O)C(Cl)=NO | 75 to 80 °C |
| O=C(O)c1cncn1C(c1ccccc1)c1ccccc1 | 216 °C |
| Clc1ccccc1-c1cnc(-c2ccccc2Cl)nc1 | 112 °C |
| CCn1nc(C(C)C)c2c1C(=O)NCC(c1ccc(O)cc1)=N2 | 230 °C |
| COC(=O)c1nc2n(c1C(=O)OC)-c1ccc(Cl)cc1C(c1ccccc1F)=NC2 | 206 to 207 °C |
| O=C1Nc2ccccc2OC1c1ccccc1 (configuration not stated) | 146 °C |
| CCN1CCN(Cc2ccc3c(c2)-c2[nH]nc(-c4ccsc4)c2C3)CC1 | 221 to 223 °C |
| Nc1cc(OCC(O)CO)nc(N)n1 (configuration not stated) | 160 °C |
| c1ccc2c(CCc3ccncc3)c[nH]c2c1 | 154 to 158 °C |

| SMILES | melting point |
| --- | --- |
| O=C(O)c1cn(C2CC2)c2c(F)c(N3CCOC(CN4CCOCC4)C3)c(F)cc2c1=O (configuration not stated) | 171 to 172 °C |
| O=c1nc(C2CCCCC2)c2cc(Cl)ccc2[nH]1 | 270 °C |
| ClCCCOc1ccc(Cl)cc1 | 35 to 36 °C |
| O=C(CCl)NCc1c(O)c(I)cc2c1CCCC2 | 119 to 125 °C |
| CCCc1c(O)ccc2c(=O)cc(/C=C/C(=O)OCC)oc12 | 203 to 204 °C |
| COc1ccc(CCCCc2ccc(OC)c(OC)c2OC)cc1OC | 165 to 167 °C |
| Nc1ccc2sc3ccc(F)cc3c2c1 | 131 to 132 °C |
| CCc1[nH]n(C2CCCC2)c2nc(Cc3cccs3)nc(=O)c1-2 | 173 to 174 °C |
| CCCN(CCC)c1c(CC)nn2c(-c3ccc(N(C)C)cc3C(F)(F)F)cccc12 | 69.1 to 79.8 °C |
| Cc1nnc(-c2ccc3occ(-c4ccc(C(N)=O)cc4)c3c2)o1 | 250 to 251 °C |
| Nc1c(Cl)cnc(OCCO)c1Cl | 77.5 to 81 °C |
| CS(=O)(=O)N(Cc1cccnc1)c1ccccc1F | 120 °C |
| O=S(=O)(N[C@H]1CC[C@H](CCN2CCN(c3nccc4c3OCC4)CC2)CC1)c1ccc(F)cc1 | 148 °C |
| CSCc1ccc(NC(=O)/C=C/c2cnn(C)c2-c2ccc(SC)cc2)cc1 | 145 to 146 °C |
| CCCCCCCCCCCCC/C=C(\C(=O)Nc1ccc(C(=O)OC)cc1)c1ccc2c(c1)C(C)(C)CCC2(C)C | 93 to 94 °C |
| Cc1cc(C)c(C(=O)Nc2ccc(-n3nc(C(F)(F)F)cc3C(F)(F)F)cc2)c(C)c1 | 203 to 205 °C |
| CCCCc1ncc(C(=O)OCC)c(NCc2ccc(-c3ccccc3-c3nnnn3C(c3ccccc3)(c3ccccc3)c3ccccc3)cc2)n1 | 116 to 118 °C |
| CS(=O)(=O)c1ccc(-c2[nH]nc(C(CCCO[N+](=O)[O-])=NO)c2-c2ccc(C#N)cc2)cc1 | 146 to 147 °C |
| ONCCc1ccccc1 | 118 to 121 °C |
| CCOC(=O)Oc1ccc(C=CC(=O)NC2CCCNC(=O)C2)cc1 (configuration not stated) | 209 to 210 °C |
| O=C1Nc2cccc(Cl)c2C12COc1cc3c(cc12)CCO3 (configuration not stated) | > 200 °C |
| CCOC(=O)CN1C(=O)C2=C(c3ccccc3)N(CC(=O)OCC)C(=O)C2=C1c1ccccc1 | 204 to 208 °C |
| COC(=O)C(O)(c1ccc(Cl)c(Cl)c1)c1ccc(Cl)c(Cl)c1 | 69 °C |

Results, then the compound that gave them:

| melting point | SMILES |
| --- | --- |
| 149 to 150 °C | Cc1nc(-n2ccc(CCc3ccccc3)cc2=O)sc1C(=O)NCc1ccccc1 |
| 80 to 81 °C | COc1ccc2c(Br)c(C)sc2c1 |
| 177 °C | CN1CCN(c2cccc(C(=O)N3CC=C(c4ccccc4F)CC3)n2)CC1 |
| 278 to 280 °C | Cc1cc(COc2cccc3c2CN(C2CCC(=O)NC2=O)C3=O)on1 (configuration not stated) |
| 180 to 190 °C | CC(=O)OCc1ccc2cc(C(=O)O)ccc2c1 |
| 118 to 120 °C | CCN1CCN(Cc2cc(-c3ccc4c(Nc5cc(OC)c(Cl)cc5Cl)c(C#N)cnc4c3)cs2)CC1 |
| > 300 °C | CC(=O)Nc1cccc2c1C(=O)c1c-2n[nH]c1-c1ccncc1 |
| 76.5 to 78 °C | CNCC1CN(c2ccc3ccccc3c2)C(=O)O1 (configuration not stated) |
| 129 to 132 °C | COc1ccc(-c2cc(=Nc3ccc(OCC(O)CNC(C)C)cc3)n(C)c(=O)n2C)cc1OC (configuration not stated) |
| 102 °C | Cc1ccc(-c2ccccc2)cc1Cn1c(C2CC2)nn(C)c1=O |
| > 330 °C | CC1(C)CCC(C)(C)c2cc(OCc3ccc(C(=O)O)cc3)ccc21 |
| 175 to 180 °C | CCC(C)C(S)C(=O)NC1(C(=O)NC(Cc2ccc(-c3ccco3)nc2)C(=O)O)CCCC1 (configuration not stated) |
| 237 to 238 °C | Cc1nc2c3c(c(C(=O)NCCCO)cc2n1C)CCC1(Cc2ccccc2C1)N3 |
| 115 to 122 °C | COc1ccc(Cc2cc(O)ccc2OC)nc1 |
| 43.5 to 44 °C | COCCCOc1cc(C[C@@H](C(=O)O)C(C)C)ccc1OC |
| 124 to 125 °C | COC(=O)[C@H]1C[C@H](n2c(Br)c(-c3cccc(OCc4ccccc4)c3)c3c(N)ncnc32)C1 |
| 182 to 183 °C | N#Cc1ccc2ccccc2c1O |
| 83 to 84 °C | c1ccc2cc(CN3CCN(c4nccs4)CC3)ccc2c1 |
| 158 to 160 °C | O=C(NCC(c1ccccc1)c1ccccc1)N1CCC(=C(c2ccccc2)c2ccccc2)CC1 |
| 101 °C | O=C(Cl)c1cn(CCCCl)c(=O)c2ccccc12 |
| 138 to 139 °C | CCCCc1nc2cccc(C(=O)OCC)c2n1Cc1ccc(-c2ccccc2-c2nnn[nH]2)cc1 |
| 113 to 116 °C | Nc1ccccc1NS(=O)(=O)c1cc(C(=O)O)cc(NCc2ccccc2)c1Oc1ccccc1 |
| 164 to 167 °C | CC(=O)Nc1ccc(-n2ccnc2SCc2ccccc2N2CCOCC2)nc1 |
| 204 to 206 °C | COc1cc(NC(=O)Nc2cnc3c(C)cc(C)cc3c2-c2ccccc2Cl)cc(OC)c1OC |
| 106 to 110 °C | CCC(CC1(c2ccc(Cl)c(Cl)c2)CCC1)=NO |
| 73 to 74.5 °C | CCOC(=O)C(Cc1ccccc1CCCBr)(NC(C)=O)C(=O)OCC |
| 226 to 228 °C | COc1c(C2CCN(CCCCNC(=O)c3ccc(-c4ccc(NC(=O)C(F)(F)F)cc4)cc3)CC2)ccc2c1CCCC2 |
| 101 to 102 °C | COc1ccc(CNC(=O)c2ccccc2)cc1OC |

| melting point | SMILES |
| --- | --- |
| 61 to 67 °C | Clc1ccc2c(c1)C1(CO1)c1ccccc1C21CO1 (configuration not stated) |
| 114 °C | Nc1ncccc1CNC1CCN(Cc2ccccc2)CC1 |
| 172 to 174 °C | COC(=O)c1ccc(Cc2cccc3ccc(NC(=O)CC4CCCC4)cc23)c(OC)c1 |
| 185 to 186 °C | COc1cc(C(C)C)c(NC(=O)CN2CCN(CCSc3nc4cccc(C(C)=O)c4o3)CC2)c(C(C)C)c1 |
| 100 to 102 °C | CN(CCO)c1nccc(Oc2ccc(NC(=O)c3cc(F)cc(N4CCOCC4)c3)c3ccccc23)n1 |
| 80 °C | C=C(C1=C(CCC(=O)OC)C(=O)CC1O)c1ccccc1 (configuration not stated) |
| 201 to 203 °C | COc1ccccc1NC(=O)Nc1nc2c(s1)CN(C)CC2 |
| 189 to 191 °C | CCN1c2ncc(N)cc2C(=O)N(C)c2cccnc21 |
| 151 to 153 °C | Cc1cc(C)c(Oc2cccc(C#N)c2C#N)c(C)c1 |
| 84 to 85 °C | Nc1nc(Nc2ccccc2)sc1C(=O)c1cccs1 |
| 269 °C | COc1ccc(-c2[nH]nc3c2C(=O)c2c(NC(=O)NNC(=O)c4ccccc4OC)cccc2-3)cc1 |
| 145 to 147 °C | CC(=O)NC(C(=O)NCc1ccccc1)c1cn(S(=O)(=O)N(C)C)cn1 (configuration not stated) |
| 218 °C | CC=CC(=O)Nc1n[nH]c2ccc(C)cc12 |
| 162 °C | COC(=O)c1cc2ccc(Cl)c(Cl)c2o1 |
| 155 to 156 °C | COc1cccc(-c2ccnc(Nc3cc(OC)c(OC)c(OC)c3)n2)c1 |
| 68 to 70 °C | N#CNc1cc(F)ccc1-c1ccccc1 |
| 191 to 192 °C | CCCN(C(=O)c1cccc(-c2nc(=O)c3ccccc3s2)n1)C(=O)N(C)C |
| 154 to 155 °C | CSc1cc2c(cc1C(F)(F)F)N(C(=O)Nc1ccc(C(=O)NCCN(C)C)cc1)CC2 |
| 58 to 60 °C | CCOC(=O)COc1coccc1=O |
| 135 to 136 °C | COc1cc(COc2cc(N)c(Cl)cc2C(=O)CCCCN2CCC(C)(C)CC2)cc(OC)c1 |
| 158 to 159 °C | Cc1cc(N)nc(CCCCNC(=O)c2c(O)cccc2O)c1 |
| 231 to 233 °C | CCn1cc(C(C)=O)c(=O)c2ccc(-c3ccncc3)cc21 |
| 235 to 236 °C | COc1cc2c(=O)cc[nH]c2cc1OCc1ccccc1 |
| 207 to 208 °C | CCOC(=O)C(=O)c1c[nH]c2cc(OC)ccc12 |
| 193 to 195 °C | COc1cc(-c2cccs2)ccc1C(=O)/C=C/c1ccc(C(=O)O)cc1 |
| 138 to 140 °C | COc1ccc(CNc2cc(Cl)c(N=CN(C)C)c(Cl)c2)cc1F |
| 103 to 105 °C | c1ccc(COC2CCN(Cc3cc4ccccc4[nH]3)CC2)cc1 |

From a melting point compilation (Tetko et al.; mined from patent text by program, amines drawn as free bases though some values may be those of a salt)
